Two molecules from US5478845A, “Piperidine derivatives” (Novo Nordisk A/S, priority 1993, dated 1995) can be followed below.

What all share (design): species or system Male Wistar rats
In one test the target is T1, DOPAMINE D2 Receptor (Rattus norvegicus, UniProt P61169).
T1 construct: Male Wistar rats, 150-200 g are decapitated, striatum is removed quickly and weighed; from tissue; host or cells: rat striatum membrane fragments
Put plainly: TEST 1: In Vitro Inhibition of DOPAMINE D2 Receptor Binding (3H-Spiroperidol, rat striatum). Particulars: 3H-Spiroperidol (0.05 nM), rat striatum membranes, 20 min. at 37° C.; read-out: TEST 1 IC50 (concentration inhibiting specific binding by 50%). As to the method:
TEST 1: In Vitro Inhibition of DOPAMINE D2 Receptor Binding
Radioactive-labelled ligand ^3 H-Spiroperidol is incubated with isolated cell-membrane fragments at 37° C. for a given period of time. Following completed incubation, the incubate is filtered through GF/B filters which are rinsed following filtration to remove unspecifically adhered radioactivity. As opposed to low-molecular compounds, membrane fragments are not rinsed through the filters, the radioactivity bound to the filters is indicative of the amount of ligand bound specifically as well as nonspecifically to the membranes.
The procedure is performed in ice bath. Polytron kinematica is rinsed with milli-Q--H2 O before and after use. Male Wistar rats, 150-200 g are decapitated, striatum is removed quickly and weighed (approx. 50 mg). Striatum is transferred to a centrifuging vial containing 10 ml ice-cold D2 buffer. Homogenization is performed applying polytron kinematica (homogenizer) setting 6 for 20 sec. The homogenizer is rinsed with 10 ml D2 buffer in another centrifuging vial. The 10 ml rinsing buffer is added to the tissue vial. Centrifugation at 18,000 rpm for 10 min. at 4° C. Final pellet is transferred to 1,000×vol. of same buffer. (Ex. 50 mg striatum in 50 ml D2 buffer). Can be stored at 0° C. for at least 4 hours. Note that the tissue must be monogeneous (uniform) before use. If not, brief homogenization is performed. […]

The next test concerns the target T2, DOPAMINE D1 Receptor (Rattus norvegicus, UniProt P18901).
T2 construct: Male Wistar rats, 150-200 g are decapitated; Striatum is removed quickly; from tissue; host or cells: rat striatum membrane fragments
Briefly: TEST 2: In Vitro Inhibition of DOPAMINE D1 Receptor Binding (3H-SCH 23390, rat striatum). Particulars: 3H-SCH 23390 (0.2 nM), rat striatum membranes, 60 min. at 30° C.; read-out: TEST 2 IC50 (concentration inhibiting specific binding by 50%). As to the method: TEST 2: In Vitro Inhibition of DOPAMINE D1 Receptor Binding
Radioactive-labelled ligand ^3 H-SCH 23390 is incubated with isolated cell-membrane fragments in incubation buffer at 30° C. for a given period of time. Following completed incubation, the incubate is filtered through GF/B filters, which are rinsed following filtration to remove unspecifically adhered radioactivity. As opposed to low-molecular compounds, membrane fragments are not rinsed through the filters, the radioactivity bound to the filters indicates the amount of ligand bound specifically as well as nonspecifically to the membranes.
Male Wistar rats, 150-200 g are decapitated. Striatum is removed quickly, weighed (approx. 50 mg) and carefully homogenized in 100×vol. of buffer I applying glass/teflon homogenizer 10 up/down strokes. Ex.: 50 mg striatum is homogenized in […] buffer I. The homogenate is centrifuged at 18,000 rpm for 20 min. at 4° C., and the supernate is decanted. This step is performed three times, and each time the pellet is resuspended and homogenized in 100×vol. of buffer I. Following the third centrifugation, the pellet is suspended in 100×vol. of resuspension buffer and homogenized. The tissue is now ready for use. The tissue is stable at 0° C. for 8 hours.
200 μl test substance/H2 O/blind (cis-flupentixol 2 μM)
Incubation for 60 min. at 30° C.
10 ml of ice-cold 0.9% NaCl is added to the tubes. […]

In the next test the target is T3, 5HT2-Receptor (Rattus norvegicus, UniProt P14842).
T3 construct: Male Wistar rats, 150-200 g are decapitated; Frontal cortex is removed quickly; from tissue; host or cells: rat frontal cortex membrane fragments
T3 sequence (P14842 whole entry, the tested form may be a part): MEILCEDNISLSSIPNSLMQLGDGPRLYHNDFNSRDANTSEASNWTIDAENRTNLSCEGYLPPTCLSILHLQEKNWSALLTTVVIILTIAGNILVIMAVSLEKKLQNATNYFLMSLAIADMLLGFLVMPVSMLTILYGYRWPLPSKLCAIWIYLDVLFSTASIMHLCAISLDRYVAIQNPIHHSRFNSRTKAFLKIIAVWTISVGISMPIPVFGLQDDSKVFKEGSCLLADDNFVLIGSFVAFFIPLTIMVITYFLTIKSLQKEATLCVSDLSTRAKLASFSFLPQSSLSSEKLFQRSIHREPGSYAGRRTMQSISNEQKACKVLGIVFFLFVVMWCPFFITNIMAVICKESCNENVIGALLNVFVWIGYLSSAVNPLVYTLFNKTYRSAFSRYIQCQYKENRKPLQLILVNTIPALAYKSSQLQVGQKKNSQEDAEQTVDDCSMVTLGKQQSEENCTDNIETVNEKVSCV
Briefly: TEST 3: In Vitro Inhibition of 5HT2-Receptor Binding (3H-Ketanserine, rat frontal cortex). Particulars: 3H-Ketanserine (0.4 nM), rat frontal cortex membranes, 15 min. at 37° C.; read-out: TEST 3 IC50 (concentration inhibiting specific binding by 50%). The protocol:
TEST 3: In Vitro Inhibition of 5HT2 -Receptor Binding
Radioactive-labelled ligand ^3 H-Ketanserine is incubated with isolated cell membrane fragments at 37° C. for a given period of time. Following completed incubation, the incubate is filtered through GF/B filters, which are rinsed following filtration to remove unspecifically adhered radioactivity. As opposed to low-molecular compounds, membrane fragments are not rinsed through the filters, the radioactivity bound to the filters indicates the amount of ligand bound specifically as well as nonspecifically to the membranes.
The preparation is made in ice bath. Polytron kinematica is rinsed with milli-Q--H2 O before and after use. Male Wistar rats, 150-200 g are decapitated. Frontal cortex is removed quickly and weighed (approx. 200 mg). Frontal cortex is added to centrifuging vial containing 10 ml ice-cold D2 buffer. Homogenization applying polytron kinematica (homogenizer) setting 6 for 20 sec. The homogenizer is rinsed with 10 ml D2 buffer in another centrifuging vial. The 10 ml rinsing buffer is added to the tissue vial. Centrifuged at 18,000 rpm for 10 min. at 4° C. Final pellet is transferred to 125×vol. of same buffer. (Ex 200 mg in 25 ml D2 buffer). Can be stored for approx. 30 min. at 0° C.
25/μl ^3 H-Ketanserine (0.4 nM)
25/μl test substance/H2 O/blind cyproheptadine (2/μM)
Incubation for 15 min. at 37° C. […]

Where a name gives a salt, the structure may show the parent alone.

T1 sequence (P61169 whole entry, the tested form may be a part): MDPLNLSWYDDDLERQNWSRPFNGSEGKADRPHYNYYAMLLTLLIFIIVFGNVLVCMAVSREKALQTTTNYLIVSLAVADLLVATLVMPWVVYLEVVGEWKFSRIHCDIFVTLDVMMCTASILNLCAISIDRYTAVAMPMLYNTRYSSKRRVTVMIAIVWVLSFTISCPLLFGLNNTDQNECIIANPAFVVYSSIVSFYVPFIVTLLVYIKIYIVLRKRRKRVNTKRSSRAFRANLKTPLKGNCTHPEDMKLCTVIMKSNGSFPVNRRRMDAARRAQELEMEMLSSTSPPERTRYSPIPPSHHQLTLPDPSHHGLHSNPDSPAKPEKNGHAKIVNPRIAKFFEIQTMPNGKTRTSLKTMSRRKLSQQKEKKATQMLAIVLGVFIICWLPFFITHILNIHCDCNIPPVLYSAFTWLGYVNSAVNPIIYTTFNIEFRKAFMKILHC
T2 sequence (P18901 whole entry, the tested form may be a part): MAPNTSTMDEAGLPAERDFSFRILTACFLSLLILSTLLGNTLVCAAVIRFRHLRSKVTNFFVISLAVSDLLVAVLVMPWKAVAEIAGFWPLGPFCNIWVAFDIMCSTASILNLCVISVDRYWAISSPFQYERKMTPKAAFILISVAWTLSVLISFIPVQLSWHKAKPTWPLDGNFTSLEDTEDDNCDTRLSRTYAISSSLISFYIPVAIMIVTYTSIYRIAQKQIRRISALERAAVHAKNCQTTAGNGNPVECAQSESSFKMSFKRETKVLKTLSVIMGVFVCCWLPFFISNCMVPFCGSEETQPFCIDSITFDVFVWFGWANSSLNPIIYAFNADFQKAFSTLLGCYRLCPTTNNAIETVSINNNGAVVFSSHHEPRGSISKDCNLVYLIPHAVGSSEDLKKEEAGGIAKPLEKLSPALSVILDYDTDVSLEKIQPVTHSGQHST

Take `CCN(C(=O)OCCCN1CCC(c2noc3cc(F)ccc23)CC1)c1ccc2c(c1)OCO2` [Example 2, 4-(6-Fluoro-1,2-benzisoxazol-3-yl)-1-(3-(N-ethyl-N-(3,4-methylenedioxyphenyl)carbamoyloxy)propylpiperidine, oxalate]: the IC50 was determined as 18 nM on DOPAMINE D2 Receptor, 30 nM on DOPAMINE D1 Receptor and 6.7 nM on 5HT2-Receptor.
On the same counts, the results for `CN(C(=O)OCCCN1CCC(c2noc3cc(F)ccc23)CC1)c1ccccc1` [Example 3, 4-(6-Fluoro-1,2-benzisoxazol-3-yl) -1-(3-(N-methyl-N-phenylcarbamoyloxy)propyl)piperidine, oxalate] are 8.9 nM, 43 nM and 6.9 nM.
